Experimental data as given in PubChem BioAssay (NCI).
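The compound was tested at five concentrations on cells cultured in 96-well plates, with a 48-hour exposure period. GI50: concentration for 50% inhibition of growth. TGI marks complete inhibition of growth.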

How the values were obtained:
Assay in all cases: NCI tumour cell line growth inhibition, 48 h
T-47D breast = test system: T-47D breast
HCT-15 colon = test system: HCT-15 colon
HT29 colon = test system: HT29 colon
SF-268 CNS = test system: SF-268 CNS
SK-MEL-2 melanoma = test system: SK-MEL-2 melanoma
HCT-116 colon = test system: HCT-116 colon
HCC-2998 colon = test system: HCC-2998 colon
A498 renal = test system: A498 renal

CCN(CC)CCCCNc1c2ccccc2[n+](C)c2c1[nH]c1ccccc12
GI50 (T-47D breast): 0.178 µM
TGI (T-47D breast): 1.1 µM
GI50 (HCT-15 colon): 7.15 µM
TGI (HCT-15 colon): > 70 µM
GI50 (HT29 colon): 0.229 µM
TGI (HT29 colon): 1.09 µM
GI50 (SF-268 CNS): 0.209 µM
TGI (SF-268 CNS): 1.4 µM
GI50 (SK-MEL-2 melanoma): 0.31 µM
TGI (SK-MEL-2 melanoma): 0.956 µM
GI50 (HCT-116 colon): 0.356 µM
GI50 (HCC-2998 colon): 0.27 µM
TGI (HCC-2998 colon): 0.763 µM
GI50 (A498 renal): 0.613 µM
TGI (A498 renal): 2.39 µM

COc1cc2ccc(/C=C\[N+](=O)[O-])cc2cc1OC
TGI (T-47D breast): 12.5 µM
TGI (HCT-15 colon): 17.2 µM
TGI (HT29 colon): 4 µM
TGI (SF-268 CNS): 11 µM
TGI (SK-MEL-2 melanoma): 9.43 µM
TGI (HCT-116 colon): 5.16 µM
TGI (HCC-2998 colon): 13.6 µM
TGI (A498 renal): 29.1 µM

COc1ccc(-c2nc(-c3nc4ccc(OC)cc4[nH]3)c3ccccn23)cc1
GI50 (T-47D breast): 2.7 µM
TGI (T-47D breast): 9.75 µM
GI50 (HCT-15 colon): 3.76 µM
TGI (HCT-15 colon): 90.6 µM
GI50 (HT29 colon): 3.75 µM
TGI (HT29 colon): > 100 µM
GI50 (SF-268 CNS): 4.53 µM
TGI (SF-268 CNS): 64.3 µM
GI50 (SK-MEL-2 melanoma): 4.07 µM
TGI (SK-MEL-2 melanoma): 16.5 µM
GI50 (HCT-116 colon): 3.63 µM
TGI (HCT-116 colon): 13.1 µM
GI50 (HCC-2998 colon): 3.96 µM
TGI (HCC-2998 colon): 46.4 µM
GI50 (A498 renal): 4.28 µM
TGI (A498 renal): > 100 µM

CN[C@@H](C)C(=O)N[C@H](C(=O)N1CCC[C@H]1C(=O)Nc1snnc1-c1ccccc1)C1CCCCC1
GI50 (T-47D breast): 57.5 µM
TGI (T-47D breast): > 100 µM
GI50 (HCT-15 colon): 58.3 µM
TGI (HCT-15 colon): > 100 µM
GI50 (HT29 colon): 31.7 µM
TGI (HT29 colon): > 67.3 µM
GI50 (SF-268 CNS): > 86.1 µM
TGI (SF-268 CNS): > 100 µM
GI50 (SK-MEL-2 melanoma): 27.4 µM
TGI (SK-MEL-2 melanoma): > 63.9 µM
GI50 (HCT-116 colon): 41.6 µM
TGI (HCT-116 colon): > 100 µM
GI50 (HCC-2998 colon): 25.6 µM
TGI (HCC-2998 colon): 60.8 µM
GI50 (A498 renal): 19.5 µM
TGI (A498 renal): 57.3 µM

COc1ccc2cc(C(=O)/C=C/c3ccc(Cl)cc3Cl)ccc2c1
GI50 (T-47D breast): 20.8 µM
TGI (T-47D breast): 66.8 µM
GI50 (HCT-15 colon): 9.17 µM
TGI (HCT-15 colon): 29.7 µM
GI50 (HT29 colon): 6.63 µM
TGI (HT29 colon): 51.3 µM
GI50 (SF-268 CNS): > 100 µM
TGI (SF-268 CNS): > 100 µM
GI50 (SK-MEL-2 melanoma): 44.4 µM
TGI (SK-MEL-2 melanoma): 95.7 µM
GI50 (HCT-116 colon): 3.04 µM
TGI (HCT-116 colon): 10.3 µM
GI50 (HCC-2998 colon): 15.3 µM
TGI (HCC-2998 colon): 29.1 µM
GI50 (A498 renal): 19.8 µM
TGI (A498 renal): 36 µM

C(#Cc1ccccc1C#Cc1cccs1)c1cccs1
GI50 (T-47D breast): 30.2 µM
TGI (T-47D breast): > 100 µM
GI50 (HCT-15 colon): 24.6 µM
TGI (HCT-15 colon): > 100 µM
GI50 (HT29 colon): 23.5 µM
TGI (HT29 colon): > 100 µM
GI50 (SF-268 CNS): > 100 µM
TGI (SF-268 CNS): > 100 µM
GI50 (SK-MEL-2 melanoma): 41.7 µM
TGI (SK-MEL-2 melanoma): > 100 µM
GI50 (HCT-116 colon): 21.8 µM
TGI (HCT-116 colon): > 100 µM
GI50 (HCC-2998 colon): 24 µM
TGI (HCC-2998 colon): 65.2 µM
GI50 (A498 renal): 22 µM
TGI (A498 renal): 81.4 µM

COC(=O)c1nc(-c2ccccc2)oc1S(=O)(=O)Cc1ccccc1
GI50 (T-47D breast): 2.17 µM
TGI (T-47D breast): 5.95 µM
GI50 (HCT-15 colon): 1.79 µM
TGI (HCT-15 colon): 3.58 µM
GI50 (HT29 colon): 2.44 µM
TGI (HT29 colon): 5.79 µM
GI50 (SF-268 CNS): 16.1 µM
TGI (SF-268 CNS): 32.8 µM
GI50 (SK-MEL-2 melanoma): 12.7 µM
TGI (SK-MEL-2 melanoma): 26.9 µM
GI50 (HCT-116 colon): 2.58 µM
TGI (HCT-116 colon): 6.23 µM
GI50 (HCC-2998 colon): 19 µM
TGI (HCC-2998 colon): 36.3 µM
GI50 (A498 renal): 15.9 µM
TGI (A498 renal): 29.7 µM

C[C@H]1[C@H](C)CC[C@]2(CO)CC[C@]3(C)C(=CC[C@@H]4[C@@]5(C)CCCNC(C)(C)[C@@H]5CC[C@]43C)[C@H]12
GI50 (T-47D breast): 1.68 µM
TGI (T-47D breast): 4.03 µM
GI50 (HCT-15 colon): 1.37 µM
TGI (HCT-15 colon): 2.75 µM
GI50 (HT29 colon): 0.628 µM
TGI (HT29 colon): 1.97 µM
GI50 (SF-268 CNS): 1.79 µM
TGI (SF-268 CNS): 3.5 µM
GI50 (SK-MEL-2 melanoma): 1.9 µM
TGI (SK-MEL-2 melanoma): 3.63 µM
GI50 (HCT-116 colon): 1.49 µM
TGI (HCT-116 colon): 2.81 µM
GI50 (HCC-2998 colon): 1.75 µM
TGI (HCC-2998 colon): 3.46 µM
GI50 (A498 renal): 1.63 µM
TGI (A498 renal): 3.29 µM

Cc1ccc(S(=O)(=O)N/N=C/c2c(O)ccc3ccccc23)cc1
TGI (T-47D breast): > 100 µM
TGI (HCT-15 colon): > 100 µM
TGI (HT29 colon): > 100 µM
TGI (SF-268 CNS): > 100 µM
TGI (SK-MEL-2 melanoma): 49.1 µM
TGI (HCT-116 colon): 45.6 µM
TGI (HCC-2998 colon): 46.1 µM
TGI (A498 renal): 44.2 µM

C=C(C)C(=O)Nc1ccc(NC(C)C)cc1
GI50 (T-47D breast): > 100 µM
TGI (T-47D breast): > 100 µM
GI50 (HCT-15 colon): > 100 µM
TGI (HCT-15 colon): > 100 µM
GI50 (HT29 colon): > 100 µM
TGI (HT29 colon): > 100 µM
GI50 (SF-268 CNS): > 100 µM
TGI (SF-268 CNS): > 100 µM
GI50 (SK-MEL-2 melanoma): > 100 µM
TGI (SK-MEL-2 melanoma): > 100 µM
GI50 (HCT-116 colon): > 100 µM
TGI (HCT-116 colon): > 100 µM
GI50 (HCC-2998 colon): > 100 µM
TGI (HCC-2998 colon): > 100 µM
GI50 (A498 renal): > 100 µM
TGI (A498 renal): > 100 µM

C=C1CCC2C3(C)COC(c4ccc(N(C)C)cc4)OC3CCC2(C)C1C/C=C1/C(=O)OCC1O (centres undefined)
GI50 (T-47D breast): 6.91 µM
TGI (T-47D breast): 26.3 µM
GI50 (HCT-15 colon): 1.91 µM
TGI (HCT-15 colon): 6 µM
GI50 (HT29 colon): 2.43 µM
TGI (HT29 colon): 6.19 µM
GI50 (SF-268 CNS): 3.78 µM
TGI (SF-268 CNS): 14.4 µM
GI50 (SK-MEL-2 melanoma): 5.15 µM
TGI (SK-MEL-2 melanoma): 13.7 µM
GI50 (HCT-116 colon): 1.62 µM
TGI (HCT-116 colon): 3.05 µM
GI50 (HCC-2998 colon): 7.69 µM
TGI (HCC-2998 colon): 19.8 µM
GI50 (A498 renal): 6.25 µM
TGI (A498 renal): 17.1 µM

CN(CCCn1c2c(c3ccccc3c1=O)C(=O)c1ccccc1-2)CCCn1c2c(c3ccccc3c1=O)C(=O)c1ccccc1-2
GI50 (T-47D breast): 0.259 µM
TGI (T-47D breast): 18.3 µM
GI50 (HCT-15 colon): 0.229 µM
TGI (HCT-15 colon): 2.62 µM
GI50 (SF-268 CNS): 1.64 µM
TGI (SF-268 CNS): > 100 µM
GI50 (SK-MEL-2 melanoma): 27.6 µM
TGI (SK-MEL-2 melanoma): > 51.8 µM
GI50 (HCT-116 colon): 0.0133 µM
TGI (HCT-116 colon): 0.37 µM
GI50 (HCC-2998 colon): 0.385 µM
TGI (HCC-2998 colon): 9.46 µM
GI50 (A498 renal): 11.4 µM
TGI (A498 renal): 74.3 µM

COc1cc(NC(C)CCCNC2CN3CCC2CC3)c2ncccc2c1 (centres undefined)
GI50 (T-47D breast): 4.54 µM
TGI (T-47D breast): 20.5 µM
GI50 (HCT-15 colon): 11.5 µM
TGI (HCT-15 colon): 27.3 µM
GI50 (HT29 colon): 3.7 µM
TGI (HT29 colon): 14 µM
GI50 (SF-268 CNS): 12.2 µM
TGI (SF-268 CNS): 25.8 µM
GI50 (SK-MEL-2 melanoma): 23.3 µM
TGI (SK-MEL-2 melanoma): 52.4 µM
GI50 (HCT-116 colon): 3.75 µM
TGI (HCT-116 colon): 13.9 µM
GI50 (HCC-2998 colon): 11.1 µM
TGI (HCC-2998 colon): 24.8 µM
GI50 (A498 renal): 2.05 µM
TGI (A498 renal): 16.8 µM

COc1ccc(-c2cn(-c3cc(OC)c(OC)c(OC)c3)c(SCc3ccccc3)n2)cc1OC
GI50 (T-47D breast): 41.5 µM
TGI (T-47D breast): > 100 µM
GI50 (HCT-15 colon): > 100 µM
TGI (HCT-15 colon): > 100 µM
GI50 (HT29 colon): > 100 µM
TGI (HT29 colon): > 100 µM
GI50 (SF-268 CNS): > 100 µM
TGI (SF-268 CNS): > 100 µM
GI50 (SK-MEL-2 melanoma): > 100 µM
TGI (SK-MEL-2 melanoma): > 100 µM
GI50 (HCT-116 colon): > 100 µM
TGI (HCT-116 colon): > 100 µM
GI50 (HCC-2998 colon): 84.7 µM
TGI (HCC-2998 colon): > 100 µM
GI50 (A498 renal): > 100 µM
TGI (A498 renal): > 100 µM

COc1cc(C(=O)O[C@H](C(=O)NCCCCCNC(=O)[C@@H](OC(=O)c2cc(OC)cc3c(C)cccc23)[C@]2(C)CO2)[C@]2(C)CO2)c2cccc(C)c2c1
GI50 (T-47D breast): 1 µM
GI50 (HCT-15 colon): 0.174 µM
TGI (HCT-15 colon): 2.13 µM
GI50 (HT29 colon): 0.182 µM
TGI (HT29 colon): > 100 µM
GI50 (SF-268 CNS): < 0.0304 µM
TGI (SF-268 CNS): 0.92 µM
GI50 (SK-MEL-2 melanoma): 0.2 µM
GI50 (HCT-116 colon): 0.884 µM
TGI (HCT-116 colon): 3.68 µM
GI50 (HCC-2998 colon): 0.254 µM
TGI (HCC-2998 colon): 3.55 µM
GI50 (A498 renal): 1.33 µM
TGI (A498 renal): 5.25 µM
